In patent US20240218022A1, “ANTI-VISTA MACROCYCLIC PEPTIDES AND COMPOSITIONS” (BRISTOL-MYERS SQUIBB COMPANY, priority 2022, published 2024):
Like-named read-outs stand apart in the source and are kept apart here. Starred links: 1 amine or outer side, 2 acyl side, 3 side chain; linkers in the order of their positions; H or OH if unused. Positions of bridges follow the written chain, without caps; N, C: chain ends. Non-standard residues stand in square brackets, D forms with d. Residues, ends and D or L forms follow the SMILES beside them. ξ: configuration not given here. Morpholine(3S-CO) = O=C(O)[C@@H]1COCCN1; Phe(3-Me) = Cc1cccc(C[C@H](N)C(=O)O)c1; γGlu = O=C(O)[C@H](CCC(=O)[*:2])N[*:1]; 2Nal = N[C@@H](Cc1ccc2ccccc2c1)C(=O)O; βAsp = O=C(O)[C@H](CC(=O)[*:2])N[*:1]; Ahp(2) = CCCCC[C@H](N)C(=O)O; NMeNle = CCCC[C@H](NC)C(=O)O; Tle = CC(C)(C)[C@H](N)C(=O)O; NHexGly = CCCCCCNCC(=O)O; Nle = CCCC[C@H](N)C(=O)O; Orn = NCCC[C@H](N)C(=O)O; Aun = NCCCCCCCCCCC(=O)O; AEEA = NCCOCCOCC(=O)O; ξS = NC(CO)C(=O)O

Biological target: T1, mouse VISTA (mVISTA) (Mus musculus, UniProt Q9D659)
T1 construct: expressed in transfected cells; host or cells: Human embryonic kidney 293T cells
T1 sequence (Q9D659 33-308): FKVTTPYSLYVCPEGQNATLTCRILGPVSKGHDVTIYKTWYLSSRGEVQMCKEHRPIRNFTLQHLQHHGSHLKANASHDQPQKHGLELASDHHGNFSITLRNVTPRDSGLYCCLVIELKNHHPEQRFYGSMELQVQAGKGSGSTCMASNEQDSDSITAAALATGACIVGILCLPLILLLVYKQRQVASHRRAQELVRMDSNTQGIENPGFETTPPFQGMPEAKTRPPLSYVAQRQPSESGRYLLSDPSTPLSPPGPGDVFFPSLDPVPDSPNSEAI
Experiment: Cell-Based Binding High-Content Assay For mVISTA (HC CBA mVISTA)
Procedure, shortened: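 293T cells expressing mouse VISTA, with compounds added either after seeding ("no wash") or before seeding and then washed out after 1 h. Biotinylated peptide 2 nM for 30 min at room temperature, then detection with Alexa 647–streptavidin. After fixation with Hoechst stain, plates were high-content imaged; IC50 from four-parameter logistic fit.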

[1] = 293T cells expressing mouse VISTA, competition with biotinylated peptide (2 nM), read-out: CBA mVISTA IC50

IC50 (read-out: HC CBA mVISTA IC50) | SMILES | further results
23.2 nM | CCCCCCN1CC(=O)N[C@@H](Cc2ccc(O)cc2)C(=O)N[C@@H](CCCC)C(=O)N[C@@H](CC(=O)O)C(=O)N[C@@H](CCCN)C(=O)N(C)[C@@H](CCCC)C(=O)N[C@@H](CCCCC)C(=O)N2CCC[C@H]2C(=O)N[C@@H](C(C)C)C(=O)N[C@@H](CC(=O)O)C(=O)N[C@H](C(=O)NC(CO)C(N)=O)CSCC(=O)N[C@@H](Cc2ccccc2)C(=O)N[C@@H](Cc2cccc(C)c2)C(=O)N[C@@H](CC(=O)O)C1=O (some centres unmarked) [compound 1348] ({CH2CO}-F[Phe(3-Me)]D[NHexGly]Y[Nle]D[Orn][NMeNle][Ahp(2)]PVDC[ξS]-NH2; thioether N-14) | –
– | CCCCCCN1CC(=O)N[C@@H](Cc2ccc(O)cc2)C(=O)N[C@@H](CCCCN)C(=O)N[C@@H](CC(=O)O)C(=O)N[C@@H](CCCNC(=N)N)C(=O)N[C@@H](CC(C)C)C(=O)N[C@@H](CCCCC)C(=O)N2CCC[C@H]2C(=O)N[C@@H](C(C)C)C(=O)N[C@@H](CO)C(=O)N[C@H](C(=O)NCC(=O)O)CSCC(=O)N[C@@H](Cc2ccccc2)C(=O)N[C@@H](Cc2ccc(O)cc2)C(=O)N[C@@H](CC(=O)O)C1=O [Example 1052] ({CH2CO}-FYD[NHexGly]YKDRL[Ahp(2)]PVSCG-OH; thioether N-14) | IC50 (293T cells expressing mouse VISTA, competition with biotinylated peptide (2 nM), read-out: HC CBA mVISTA IC50): 27.1 nM
24.4 nM | CCCCCCN1CC(=O)N[C@@H](Cc2ccc(O)cc2)C(=O)N[C@@H](CC(C)C)C(=O)N[C@@H](CC(N)=O)C(=O)N[C@@H](CCCNC(=N)N)C(=O)N[C@@H](CC(C)C)C(=O)N[C@@H](CCCCC)C(=O)N2CCC[C@H]2C(=O)N[C@@H](C(C)(C)C)C(=O)N[C@@H](C(C)C)C(=O)N[C@H](C(=O)NCCOCCOCC(=O)N[C@@H](CCC(=O)NCCOCCOCC(=O)NCCCCCCCCCCC(=O)O)C(=O)O)CSCC(=O)N[C@@H](Cc2ccccc2)C(=O)N[C@@H](Cc2ccc(O)cc2)C(=O)N[C@@H](CC(=O)O)C1=O [compound 2240] ({CH2CO}-FYD[NHexGly]YLNRL[Ahp(2)]P[Tle]VC[AEEA][γGlu][AEEA][Aun]-OH; thioether N-14) | –
16.1 nM | CCCCCCN1CC(=O)N[C@@H](Cc2ccc(O)cc2)C(=O)N[C@@H](CCCC)C(=O)N[C@@H](CC(N)=O)C(=O)N[C@@H](CCCNC(=N)N)C(=O)N(C)[C@@H](CCCC)C(=O)N[C@@H](CCCCC)C(=O)N2CCOC[C@H]2C(=O)N[C@@H](C(C)C)C(=O)N[C@@H](CO)C(=O)N[C@H](C(=O)N[C@@H](CC(=O)NCCOCCOCC(=O)NCCCCCCCCCCC(=O)O)C(=O)O)CSCC(=O)N[C@@H](Cc2ccccc2)C(=O)N[C@@H](Cc2c[nH]c3ccccc23)C(=O)N[C@@H](CC(=O)O)C1=O [Example 2193] ({CH2CO}-FWD[NHexGly]Y[Nle]NR[NMeNle][Ahp(2)][Morpholine(3S-CO)]VSC[βAsp][AEEA][Aun]-OH; thioether N-14) | –
– | CCCCCCN1CC(=O)N[C@@H](Cc2ccc(O)cc2)C(=O)N[C@@H](C(C)C)C(=O)NCC(=O)N[C@@H](CCCNC(=N)N)C(=O)N[C@@H](CC(C)C)C(=O)N[C@@H](CCCCC)C(=O)N2CCC[C@H]2C(=O)N[C@@H](C(C)C)C(=O)N[C@@H](CC(=O)O)C(=O)N[C@H](C(=O)N[C@@H](CC(C)C)C(N)=O)CSCC(=O)N[C@@H](Cc2ccc3ccccc3c2)C(=O)N[C@@H](Cc2ccc(O)cc2)C(=O)N[C@@H](CC(=O)O)C1=O [Ex 1309] ({CH2CO}-[2Nal]YD[NHexGly]YVGRL[Ahp(2)]PVDCL-NH2; thioether N-14) | IC50 (cell-based binding high-content assay, mVISTA, the 16th table, read-out: HC CBA mVISTA IC50): 5.2 nM
16.9 nM | CCCCCCN1CC(=O)N[C@@H](Cc2ccc(O)cc2)C(=O)N[C@@H](CCCC)C(=O)N[C@@H](CC(N)=O)C(=O)N[C@@H](CCCNC(=N)N)C(=O)N(C)[C@@H](CCCC)C(=O)N[C@@H](CCCCC)C(=O)N2CCC[C@H]2C(=O)N[C@@H](C(C)C)C(=O)N[C@@H](C(C)C)C(=O)N[C@H](C(=O)NCC(=O)O)CSCC(=O)N[C@@H](Cc2ccccc2)C(=O)N[C@@H](Cc2c[nH]c3ccccc23)C(=O)N[C@@H](CC(=O)O)C1=O [Example 1383] ({CH2CO}-FWD[NHexGly]Y[Nle]NR[NMeNle][Ahp(2)]PVVCG-OH; thioether N-14) | –
12.1 nM | CCCCCCN1CC(=O)N[C@@H](Cc2ccc(O)cc2)C(=O)N[C@@H](CCCC)C(=O)N[C@@H](CC(N)=O)C(=O)N[C@@H](CCCNC(=N)N)C(=O)N(C)[C@@H](CCCC)C(=O)N[C@@H](CCCCC)C(=O)N2CCC[C@H]2C(=O)N[C@@H](C(C)C)C(=O)N[C@@H](CCCNC(=N)N)C(=O)N[C@H](C(=O)NCC(=O)O)CSCC(=O)N[C@@H](Cc2ccccc2)C(=O)N[C@@H](Cc2c[nH]c3ccccc23)C(=O)N[C@@H](CC(=O)O)C1=O [Example 1380] ({CH2CO}-FWD[NHexGly]Y[Nle]NR[NMeNle][Ahp(2)]PVRCG-OH; thioether N-14) | –
16 nM | CCCCCCN1CC(=O)N[C@@H](Cc2ccc(O)cc2)C(=O)N[C@@H](CC(C)C)C(=O)N[C@@H](CC(N)=O)C(=O)N[C@@H](CCCNC(=N)N)C(=O)N(C)[C@@H](CCCC)C(=O)N[C@@H](CCCCC)C(=O)N2CCC[C@H]2C(=O)N[C@@H](C(C)(C)C)C(=O)N[C@@H](CO)C(=O)N[C@H](C(=O)NCCOCCOCC(=O)N[C@@H](CCC(=O)NCCOCCOCC(=O)NCCCCCCCCCCC(=O)O)C(=O)O)CSCC(=O)N[C@@H](Cc2ccccc2)C(=O)N[C@@H](Cc2ccc(O)cc2)C(=O)N[C@@H](CC(=O)O)C1=O [compound 2260] ({CH2CO}-FYD[NHexGly]YLNR[NMeNle][Ahp(2)]P[Tle]SC[AEEA][γGlu][AEEA][Aun]-OH; thioether N-14) | –
– | CCCCCCN1CC(=O)N[C@@H](Cc2ccc(O)cc2)C(=O)N[C@@H](CC(C)C)C(=O)NCC(=O)N[C@@H](CCCNC(=N)N)C(=O)N(C)[C@@H](CCCC)C(=O)N[C@@H](CCCCC)C(=O)N2CCC[C@H]2C(=O)N[C@@H](C(C)C)C(=O)N[C@@H](CO)C(=O)N[C@H](C(=O)NCC(=O)O)CSCC(=O)N[C@@H](Cc2ccccc2)C(=O)N[C@@H](Cc2ccc(O)cc2)C(=O)N[C@@H](CC(=O)O)C1=O [Example 1080] ({CH2CO}-FYD[NHexGly]YLGR[NMeNle][Ahp(2)]PVSCG-OH; thioether N-14) | IC50 [1]: 18.6 nM
– | CCCCCCN1CC(=O)N[C@@H](Cc2ccc(O)cc2)C(=O)N[C@@H](CCCC)C(=O)N[C@@H](CC(=O)O)C(=O)N[C@@H](CCCNC(=N)N)C(=O)N[C@@H](CC(C)C)C(=O)N[C@@H](CCCCC)C(=O)N2CCC[C@H]2C(=O)N[C@@H](C(C)C)C(=O)N[C@@H](CC(=O)O)C(=O)N[C@H](C(=O)N[C@@H](CO)C(N)=O)CSCC(=O)N[C@@H](Cc2ccc3ccccc3c2)C(=O)N[C@@H](Cc2c[nH]c3ccccc23)C(=O)N[C@@H](CC(=O)O)C1=O [compound 1235] ({CH2CO}-[2Nal]WD[NHexGly]Y[Nle]DRL[Ahp(2)]PVDCS-NH2; thioether N-14) | IC50 (cell-based binding high-content assay, mVISTA, the 15th table, read-out: HC CBA mVISTA IC50): 13.4 nM
13.4 nM | CCCCCCN1CC(=O)N[C@@H](Cc2ccc(O)cc2)C(=O)N[C@@H](CCCC)C(=O)N[C@@H](CC(N)=O)C(=O)N[C@@H](CCCNC(=N)N)C(=O)N(C)[C@@H](CCCC)C(=O)N[C@@H](CCCCC)C(=O)N2CCC[C@H]2C(=O)N[C@@H](C(C)C)C(=O)N[C@@H](CC(=O)O)C(=O)N[C@H](C(=O)N[C@@H](CCCN)C(=O)N[C@@H](CC(N)=O)C(=O)O)CSCC(=O)N[C@@H](Cc2ccccc2)C(=O)N[C@@H](Cc2c[nH]c3ccccc23)C(=O)N[C@@H](CC(=O)O)C1=O [compound 1129] ({CH2CO}-FWD[NHexGly]Y[Nle]NR[NMeNle][Ahp(2)]PVDC[Orn]N-OH; thioether N-14) | –
– | CCCCCCN1CC(=O)N[C@@H](Cc2ccc(O)cc2)C(=O)N[C@@H](CCCC)C(=O)N[C@@H](CC(N)=O)C(=O)N[C@@H](CCCNC(=N)N)C(=O)N(C)[C@@H](CCCC)C(=O)N[C@@H](CCCCC)C(=O)N2CCC[C@H]2C(=O)N[C@@H](C(C)C)C(=O)N[C@@H](CC(=O)O)C(=O)N[C@H](C(=O)NCC(=O)O)CSCC(=O)N[C@@H](Cc2ccccc2)C(=O)N[C@@H](Cc2ccc(O)cc2)C(=O)N[C@@H](CC(=O)O)C1=O [Example 1083] ({CH2CO}-FYD[NHexGly]Y[Nle]NR[NMeNle][Ahp(2)]PVDCG-OH; thioether N-14) | IC50 [1]: 39.1 nM
17.5 nM | CCCCCCN1CC(=O)N[C@@H](Cc2ccc(O)cc2)C(=O)N[C@@H](CCCC)C(=O)N[C@@H](CC(N)=O)C(=O)N[C@@H](CCCNC(=N)N)C(=O)N(C)[C@@H](CCCC)C(=O)N[C@@H](CCCCC)C(=O)N2CCC[C@H]2C(=O)N[C@@H](C(C)C)C(=O)N[C@@H](CC(=O)O)C(=O)N[C@H](C(=O)N[C@@H](CCCN)C(=O)N[C@@H](CCC(N)=O)C(=O)O)CSCC(=O)N[C@@H](Cc2ccccc2)C(=O)N[C@@H](Cc2c[nH]c3ccccc23)C(=O)N[C@@H](CC(=O)O)C1=O [compound 1130] ({CH2CO}-FWD[NHexGly]Y[Nle]NR[NMeNle][Ahp(2)]PVDC[Orn]Q-OH; thioether N-14) | –
32.4 nM | CCCCCCN1CC(=O)N[C@@H](Cc2ccc(O)cc2)C(=O)N[C@@H](CCCC)C(=O)N[C@@H](CC(N)=O)C(=O)N[C@@H](CCCNC(=N)N)C(=O)N[C@@H](CC(C)C)C(=O)N[C@@H](CCCCC)C(=O)N2CCC[C@H]2C(=O)N[C@@H](C(C)C)C(=O)N2CCC[C@H]2C(=O)N[C@H](C(=O)NCC(=O)O)CSCC(=O)N[C@@H](Cc2ccccc2)C(=O)N[C@@H](Cc2ccc(O)cc2)C(=O)N[C@@H](CC(=O)O)C1=O [compound 1121] ({CH2CO}-FYD[NHexGly]Y[Nle]NRL[Ahp(2)]PVPCG-OH; thioether N-14) | –
